The source of these data is patent publication US8003785B2 (Takeda Pharmaceutical Company Limited, priority 2008, dated 2011).

For the first experiment, the target named is T1, PLK1 (Homo sapiens, UniProt P53350).
T1 construct: Full-length, active GST-PLK1 is purified from Sf9 insect cells; made in house; host or cells: Sf9 insect cells
T1 sequence (P53350 whole entry): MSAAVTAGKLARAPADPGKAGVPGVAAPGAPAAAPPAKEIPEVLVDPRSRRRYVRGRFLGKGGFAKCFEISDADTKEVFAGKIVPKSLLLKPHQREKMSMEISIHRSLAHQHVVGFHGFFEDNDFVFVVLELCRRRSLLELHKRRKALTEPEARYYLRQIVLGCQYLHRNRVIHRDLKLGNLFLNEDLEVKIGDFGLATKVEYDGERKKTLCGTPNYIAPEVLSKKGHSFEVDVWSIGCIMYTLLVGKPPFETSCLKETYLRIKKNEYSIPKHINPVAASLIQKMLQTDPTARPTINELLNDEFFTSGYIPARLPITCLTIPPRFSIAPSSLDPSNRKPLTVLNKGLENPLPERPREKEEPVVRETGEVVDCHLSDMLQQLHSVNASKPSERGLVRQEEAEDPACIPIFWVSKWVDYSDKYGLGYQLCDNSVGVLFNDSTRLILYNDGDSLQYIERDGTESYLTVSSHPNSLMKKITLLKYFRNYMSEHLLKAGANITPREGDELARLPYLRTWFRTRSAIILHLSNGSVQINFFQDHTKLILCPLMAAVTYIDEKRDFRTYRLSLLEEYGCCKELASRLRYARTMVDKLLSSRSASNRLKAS
As to the kind of experiment: Biochemical Characterization Assay: HTRF kinase assay, GST-PLK1 phosphorylation of GST-p53. The note with it: GST-PLK1, GST-p53 substrate. An outline of the steps: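 HTRF read-out of p53 phosphorylation: after EDTA stop, anti-phospho-p53 antibody bound 30 min at 37 °C in HEPES pH 7 buffer, with Eu-anti-rabbit/APC-anti-GST detection. Kinase step used full-length Sf9-expressed GST-PLK1 (3 ug/mL) and E. coli GST-p53 substrate, 35 min at 37 °C.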
(In general: Time-resolved FRET reads energy transfer from a long-lived donor to a nearby acceptor.)
A word on the IC50: it is the concentration that inhibits the measured activity by half. Regarding `CN1C(=O)C(F)(F)CN(C2CCCC2)c2nc(Nc3ccc(C(=O)NC4CCN(C(=O)OC(C)(C)C)CC4)cc3C(F)(F)F)ncc21` [Example I-211, 4-[4-(9-cyclopentyl-7,7-difluoro-5-methyl-6-oxo-6,7,8,9-tetrahydro-5H-pyrimido[4,5-b][1,4]diazepin-2-ylamino)-3-trifluoromethyl-benzoylamino]-piperidine-1-carboxylic acid tert-butyl ester], the IC50 lay in the range of 51 to 500 nM.
Turning to `CCN1CCC(NC(=O)c2ccc(Nc3ncc4c(n3)N(C3CCCC3)CC(F)(F)C(=O)N4C)c(C(F)(F)F)c2)CC1` [Example I-206, 4-(9-cyclopentyl-7,7-difluoro-5-methyl-6-oxo-6,7,8,9-tetrahydro-5H-pyrimido[4,5-b][1,4]diazepin-2-ylamino)-N-(1-ethyl-piperidin-4-yl)-3-trifluoromethyl-benzamide], the IC50 is 1 to 50 nM.
Regarding `CN1C(=O)C(F)(F)CN(C2CCCC2)c2nc(Nc3ccc(C(=O)NC4CCNCC4)cc3F)ncc21` [Example I-230, 4-(9-cyclopentyl-7,7-difluoro-5-methyl-6-oxo-6,7,8,9-tetrahydro-5H-pyrimido[4,5-b][1,4]diazepin-2-ylamino)-3-fluoro-N-piperidin-4-yl-benzamide], the IC50 was 1 to 50 nM.
`CNC(=O)c1ccc(Nc2ncc3c(n2)N(C2CCCCC2)CC(F)(F)C(=O)N3C)c(OC)c1` [Example I-249, 4-(9-cyclohexyl-7,7-difluoro-5-methyl-6-oxo-6,7,8,9-tetrahydro-5H-pyrimido[4,5-b][1,4]diazepin-2-ylamino)-3-methoxy-N-methyl-benzamide] showed an IC50 of 1 to 50 nM.
In turn, `Cc1cc(C(=O)NC2CCN(C(=O)OC(C)(C)C)CC2)ccc1Nc1ncc2c(n1)N(C1CCCC1)CC(F)(F)C(=O)N2C` [Example I-191, 4-[4-(9-cyclopentyl-7,7-difluoro-5-methyl-6-oxo-6,7,8,9-tetrahydro-5H-pyrimido[4,5-b][1,4]diazepin-2-ylamino)-3-methyl-benzoylamino]-piperidine-1-carboxylic acid tert-butyl ester] had an IC50 of 1 to 50 nM.
As to `CNC(=O)c1cc(F)c(Nc2ncc3c(n2)N(C2CCCC2)CC(F)(F)C(=O)N3C)cc1F` [Example I-238, 4-(9-cyclopentyl-7,7-difluoro-5-methyl-6-oxo-6,7,8,9-tetrahydro-5H-pyrimido[4,5-b][1,4]diazepin-2-ylamino)-2,5-difluoro-N-methyl-benzamide], the IC50 lay in the range of 1 to 50 nM.
For `CCc1cc(C(=O)NC2CCN(C(=O)OC(C)(C)C)CC2)ccc1Nc1ncc2c(n1)N(C1CCCC1)CC(F)(F)C(=O)N2C` [Example I-201, 4-[4-(9-cyclopentyl-7,7-difluoro-5-methyl-6-oxo-6,7,8,9-tetrahydro-5H-pyrimido[4,5-b][1,4]diazepin-2-ylamino)-3-ethyl-benzoylamino]-piperidine-1-carboxylic acid tert-butyl ester], the IC50 lay within 51 to 500 nM.
Regarding `Cc1cc(C(=O)NCCN(C)C)ccc1Nc1ncc2c(n1)N(C1CCCC1)CC(F)(F)C(=O)N2C` [Example I-188, 4-(9-cyclopentyl-7,7-difluoro-5-methyl-6-oxo-6,7,8,9-tetrahydro-5H-pyrimido[4,5-b][1,4]diazepin-2-ylamino)-N-(2-dimethylamino-ethyl)-3-methyl-benzamide], the IC50 lay within 1 to 50 nM.
`CCOc1cc(C(N)=O)ccc1Nc1ncc2c(n1)N(C1CCCC1)CC(F)(F)C(=O)N2C` [Example I-223, 4-(9-cyclopentyl-7,7-difluoro-5-methyl-6-oxo-6,7,8,9-tetrahydro-5H-pyrimido[4,5-b][1,4]diazepin-2-ylamino)-3-ethoxy-benzamide] yielded an IC50 of 1 to 50 nM.
In turn, `Cc1cc(C(=O)NC2CCOCC2)ccc1Nc1ncc2c(n1)N(C1CCCC1)CC(F)(F)C(=O)N2C` [Example I-187, 4-(9-cyclopentyl-7,7-difluoro-5-methyl-6-oxo-6,7,8,9-tetrahydro-5H-pyrimido[4,5-b][1,4]diazepin-2-ylamino)-3-methyl-N-(tetrahydro-pyran-4-yl)-benzamide] returned an IC50 of 1 to 50 nM.
The compound `COc1cc(C(=O)NC2CCOCC2)ccc1Nc1ncc2c(n1)N(CCCc1ccccc1)CC(F)(F)C(=O)N2C` [Example I-286, 4-[7,7-difluoro-5-methyl-6-oxo-9-(3-phenyl-propyl)-6,7,8,9-tetrahydro-5H-pyrimido[4,5-b][1,4]diazepin-2-ylamino]-3-methoxy-N-(tetrahydro-pyran-4-yl)-benzamide] yielded an IC50 of 51 to 500 nM.
`CNC(=O)c1ccc(Nc2ncc3c(n2)N(C2CCCC2)CC(F)(F)C(=O)N3C)c(F)c1F` [Example I-245] registered an IC50 of 1 to 50 nM.

The same experiment, now with this note: GST-PLK1, GST-p53 substrate, ATP.
For `CCN1C(=O)C(F)(F)CN(C2CCCC2)c2nc(Nc3ccc(C(N)=O)cc3)ncc21` [Example I-139, 4-(9-cyclopentyl-5-ethyl-7,7-difluoro-6-oxo-6,7,8,9-tetrahydro-5H-pyrimido[4,5-b][1,4]diazepin-2-ylamino)-benzamide], the IC50 lay within 500 to 5000 nM.
Turning to `CNC(=O)c1ccc(Nc2ncc3c(n2)N(C2CCCC2)CC(F)(F)C(=O)N3C)c(OC)c1` [Example I-24, 4-(9-cyclopentyl-7,7-difluoro-5-methyl-6-oxo-6,7,8,9-tetrahydro-5H-pyrimido[4,5-b][1,4]diazepin-2-ylamino)-3-methoxy-N-methyl-benzamide], the IC50 lay within 1 to 50 nM.
`COc1cc(C(=O)NCCN(C)C)ccc1Nc1ncc2c(n1)N(C1CCCC1)CC(F)(F)C(=O)N2C` [Example I-52, 4-(9-cyclopentyl-7,7-difluoro-5-methyl-6-oxo-6,7,8,9-tetrahydro-5H-pyrimido[4,5-b][1,4]diazepin-2-ylamino)-N-(2-dimethylamino-ethyl)-3-methoxy-benzamide] returned an IC50 of 1 to 50 nM.
The same measure, in the same setting: next, `CCCN1C(=O)C(F)(F)CN(C2CCCC2)c2nc(Nc3ccc(C(=O)NCCCN(C)C)cc3)ncc21` [Example I-148, 4-(9-cyclopentyl-7,7-difluoro-6-oxo-5-propyl-6,7,8,9-tetrahydro-5H-pyrimido[4,5-b][1,4]diazepin-2-yl-amino)-N-(3-dimethyl-amino-propyl)-benzamide]: 500 to 5000 nM.
In turn, `COc1cc(C(=O)Nc2ccccc2)ccc1Nc1ncc2c(n1)N(C1CCCC1)CC(F)(F)C(=O)N2C` [Example I-38, 4-(9-cyclopentyl-7,7-difluoro-5-methyl-6-oxo-6,7,8,9-tetrahydro-5H-pyrimido[4,5-b][1,4]diazepin-2-ylamino)-3-methoxy-N-phenyl-benzamide] returned an IC50 of 51 to 500 nM.
Compound `COc1cc(C(=O)NN2CCCCC2)ccc1Nc1ncc2c(n1)N(C1CCCC1)CC(F)(F)C(=O)N2C` [Example I-115, 4-(9-cyclopentyl-7,7-difluoro-5-methyl-6-oxo-6,7,8,9-tetrahydro-5H-pyrimido[4,5-b][1,4]diazepin-2-ylamino)-3-methoxy-N-piperidin-1-yl-benzamide] displayed an IC50 of 1 to 50 nM.
Same read-out and setting: next, `COc1cc(C(N)=O)ccc1Nc1ncc2c(n1)N(C1CCC1)CC(F)(F)C(=O)N2C` [Example I-2, 4-(9-cyclobutyl-7,7-difluoro-5-methyl-6-oxo-6,7,8,9-tetrahydro-5H-pyrimido[4,5-b][1,4]diazepin-2-ylamino)-3-methoxy-benzamide]: 1 to 50 nM.
The compound `COc1cc(C(=O)NCCCN(C)C)ccc1Nc1ncc2c(n1)N(C1CCC1)CC(F)(F)C(=O)N2C` [Example I-9, 4-(9-cyclobutyl-7,7-difluoro-5-methyl-6-oxo-6,7,8,9-tetrahydro-5H-pyrimido[4,5-b][1,4]diazepin-2-ylamino)-N-(3-dimethylamino-propyl)-3-methoxy-benzamide] came in with an IC50 of 1 to 50 nM.
`CN(C)CCNC(=O)c1ccc(Nc2ncc3c(n2)N(C2CCC2)CC(F)(F)C(=O)N3C)cc1` [Example I-18, 4-(9-cyclobutyl-7,7-difluoro-5-methyl-6-oxo-6,7,8,9-tetrahydro-5H-pyrimido[4,5-b][1,4]diazepin-2-ylamino)-N-(2-dimethylamino-ethyl)-benzamide] came in with an IC50 of 1 to 50 nM.
On the same count and under the same terms, the value for `CCN1C(=O)C(F)(F)CN(C2CCCC2)c2nc(Nc3ccc(C(=O)NC)cc3)ncc21` [Example I-140, 4-(9-cyclopentyl-5-ethyl-7,7-difluoro-6-oxo-6,7,8,9-tetrahydro-5H-pyrimido[4,5-b][1,4]diazepin-2-ylamino)-N-methyl-benzamide] was 500 to 5000 nM.
In turn, `COc1cc(C(=O)NC2CCN(Cc3ccccc3)CC2)ccc1Nc1ncc2c(n1)N(C1CCCC1)CC(F)(F)C(=O)N2C` [Example I-122, N-(1-benzyl-piperidin-4-yl)-4-(9-cyclopentyl-7,7-difluoro-5-methyl-6-oxo-6,7,8,9-tetrahydro-5H-pyrimido[4,5-b][1,4]diazepin-2-ylamino)-3-methoxy-benzamide] had a half-inhibitory concentration (IC50) of 1 to 50 nM.
The compound `COc1cc(C(=O)NC2CCN(C)CC2)ccc1Nc1ncc2c(n1)N(C1CCCC1)CC(F)(F)C(=O)N2CC(F)(F)F` [Example I-150, 4-[9-cyclopentyl-7,7-difluoro-6-oxo-5-(2,2,2-trifluoro-ethyl)-6,7,8,9-tetrahydro-5H-pyrimido[4,5-b][1,4]diazepin-2-ylamino]-3-methoxy-N-(1-methyl-piperidin-4-yl)-benzamide] yielded an IC50 of 500 to 5000 nM.
`COc1cc(C(=O)NC2CCOCC2)ccc1Nc1ncc2c(n1)N(C1CCCC1)CC(F)(F)C(=O)N2C` [Example I-124]: the IC50 was in the range of 1 to 50 nM.
The compound `COc1cc(C(=O)NCc2ccccc2)ccc1Nc1ncc2c(n1)N(C1CCCC1)CC(F)(F)C(=O)N2C` [Example I-35, N-benzyl-4-(9-cyclopentyl-7,7-difluoro-5-methyl-6-oxo-6,7,8,9-tetrahydro-5H-pyrimido[4,5-b][1,4]diazepin-2-ylamino)-3-methoxy-benzamide] registered an IC50 of 51 to 500 nM.
For the compound `CN1CCC(NC(=O)c2ccc(Nc3ncc4c(n3)N(C3CCCC3)CC(F)(F)C(=O)N4)cc2)CC1` [Example I-134, 4-(9-cyclopentyl-7,7-difluoro-6-oxo-6,7,8,9-tetrahydro-5H-pyrimido[4,5-b][1,4]diazepin-2-ylamino)-N-(1-methyl-piperidin-4-yl)-benzamide], the IC50 lay in the range of 51 to 500 nM.
